{"source": "paper PMC3098952", "about": "(Bioorganic & medicinal chemistry letters, 2011)", "key": {"EcMetAP": {"biological_target": "EcMetAP", "settings": "read-out: Reported affinity of metal for EcMetAP; ref [30], [31]; cited from earlier work"}, "AbMetAPx": {"biological_target": "AbMetAPx (Acinetobacter baumannii, UniProt A0A7U4DGZ4)", "assay": "Activation of and metal binding to AbMetAPx by divalent metal ions", "assay_type": "biochemical, Acinetobacter baumannii ATCC 17978", "settings": "Met-AMC fluorescence assay, enzyme 1 µM"}, "AbMetAPy": {"biological_target": "AbMetAPy (Acinetobacter baumannii, UniProt V5VCW7)", "assay": "Activation of and metal binding to AbMetAPy by divalent metal ions", "assay_type": "biochemical, Acinetobacter baumannii ATCC 17978", "settings": "Met-AMC fluorescence assay, enzyme 1 µM"}}, "note": "pKd: −log10 of the molar value."}
{"smiles": "[Co+2]", "note": "[Co(II)]", "values": [{"measurement": "pKd", "setting": "EcMetAP", "result": 6.52}]}
{"smiles": "[Fe+2]", "note": "[Fe(II)]", "values": [{"measurement": "pKd", "setting": "EcMetAP", "result": 6.70}]}
{"smiles": "[Mn+2]", "note": "[Mn(II)]", "values": [{"measurement": "pKd", "setting": "EcMetAP", "result": 5.22}]}
{"smiles": "[Zn+2]", "note": "[Zn (II)]", "values": [{"measurement": "Activation of AbMetAPx by metal ion", "setting": "AbMetAPx", "result": "no activation"}, {"measurement": "Activation of AbMetAPy by metal ion", "setting": "AbMetAPy", "result": "no activation"}]}
